Consider six compounds from US20080262071A1 (priority 2004, published 2008).

For data set [1] the following is noted: luteal phase administration; cited from earlier work.
For data set [2] the following is noted: PMS subjects; cited from earlier work.
For data set [3] the following is noted: meta-analysis of 14 double-blind trials; cited from earlier work.
The nature of data set [4]: Blood pressure after single oral dose in healthy male volunteers. Particulars: healthy subjects. The format is in vivo, human. The procedure: Ten healthy male volunteers were tested on two separate occasions one week apart. On both occasions their blood pressure was measured at baseline.
The conditions of data set [5]: man, after administration of the racemate; cited from earlier work.
The target of a further data set is T1, 5HT1a receptors (Homo sapiens, UniProt P08908).
T1 construct: host or cells: human subjects, in vivo PET
T1 sequence (P08908 1-422): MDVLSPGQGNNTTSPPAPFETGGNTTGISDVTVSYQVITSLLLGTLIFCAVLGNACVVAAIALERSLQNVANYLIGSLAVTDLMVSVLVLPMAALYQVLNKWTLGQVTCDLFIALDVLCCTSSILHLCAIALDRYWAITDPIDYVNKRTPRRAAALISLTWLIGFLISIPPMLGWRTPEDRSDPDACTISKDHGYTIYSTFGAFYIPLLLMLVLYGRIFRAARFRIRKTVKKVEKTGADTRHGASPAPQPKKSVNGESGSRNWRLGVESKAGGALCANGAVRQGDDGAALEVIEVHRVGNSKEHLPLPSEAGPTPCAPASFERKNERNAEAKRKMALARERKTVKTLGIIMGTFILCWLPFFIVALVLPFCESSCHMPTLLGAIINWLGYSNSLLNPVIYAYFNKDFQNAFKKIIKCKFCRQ
The conditions noted are these: cited from earlier work.

The nature of data set [6]: Single blind pilot study of pindolol in PMS (COPE diary, CGI). The format is in vivo, human. From the text:
A single blind pilot study to evaluate the safety, efficacy and tolerability of pindolol in PMS was initiated at one study centre. The trial objectives were to: […] […] Twenty subjects were recruited who met the criteria for inclusion in the study. After screening subjects underwent a one month assessment period with prospective diaries (COPE, Calendar of Premenstrual Events). By calculating the subjects COPE scores in the follicular and luteal phases, a diagnosis of late luteal phase dysphoric disorder could be made. All subjects then entered the single-blind placebo treatment period and the subjects' outcome at the end of this cycle acted as their baseline assessment. Subjects were then treated with pindolol for the next three cycles and assessed using the COPE. During this three month period, subjects may have a sequential increase in dose at monthly intervals from 15 to 25 mg/day to optimize response. Provision was made for dose decreases in case of tolerability concerns. Subjects were aware that they would receive three months of active and one month of placebo but were unaware of when the placebo was administered. […] Secondary efficacy measures included; mean change from the end of the placebo period in luteal phase total COPE score; mean change from end of the placebo period in luteal phase physical COPE symptoms; mean change from the end of the luteal phase behavioral symptoms; mean change from end of the placebo period in follicular phase total COPE score; CGI improvement score at each of the three menstrual cycles.

Data set [7] is described as follows: Case treatment of a person with premenstrual dysphoric disorder, daily symptom diary. Particulars: month 2, 5 mg three times daily throughout luteal phase. The format is in vivo, human. From the text: Patient was a person with a long history of premenstrual dysphoric disorder.
Throughout each cycle, a daily diary was used to document symptoms.

The mark [8] stands for this setting: PMS subjects, three cycles of pindolol.

Where two headings read alike, the source gives them in different places.

Take `CNCCC(Oc1ccc(C(F)(F)F)cc1)c1ccccc1` (stereo not shown) [fluoxetine]: the “efficacy in PMDD” value in data set [1] is recorded as “some efficacy”.

For the compound `CC(C)NCC(O)COc1ccc(CC(N)=O)cc1` (stereo not shown) [atenolol], in data set [2], the several other scales result is given as “significant improvement was not found”.

Regarding `CC(=O)[C@H]1CC[C@H]2[C@@H]3CCC4=CC(=O)CC[C@]4(C)[C@H]3CC[C@]12C` [Progesterone], the “difference from placebo treatment in PMS” value in data set [3] is on record as “did not find a clinically significant difference”.

Consider `CC(C)NCC(O)COc1cccc2[nH]ccc12` (racemic) [pindolol], for which the blood pressure result in data set [4] (10 mg orally) is recorded as “definite drop in blood pressure”. In data set [4] (10 mg), the diastolic blood pressure result is “definite drops in diastolic blood pressure”. The “differences between (−) and (+) pindolol in AUC, Cmax and t1/2 hrs” value in data set [5] is reported as “minor differences”. Moreover, the “occupancy of 5HT1a receptors” value is on record as “did not generate any significant occupancy” on 5HT1a receptors (2.5 mg) and 19% on 5HT1a receptors (5.0 mg). Moreover, in data set [6] (15 to 25 mg/day), the tolerability result was “very well tolerated”. In addition, the “withdrawals for unacceptable reductions in blood pressure” value in data set [6] (15 to 25 mg/day) is “no withdrawals”. In data set [6] (setting [8]), the CGI improvement result was “improvement in CGI”. For the same compound, the “behavioral COPE scores” value in data set [6] (setting [8]) is recorded as “Particularly significant decreases”. The “total COPE score” value in data set [6] (all patients treated with active drug, vs end of placebo period) is reported as “decrease in the reduction of total COPE score”; in data set [6] (patients on doses of 15 mg and above), “Significant decreases”.

Regarding S-(−)-pindolol [(−) pindolol], the “mood and anxiety (daily diary)” value in data set [7] was “helped improve mood and reduce anxiety”.

For the compound `CN[C@H]1CC[C@@H](c2ccc(Cl)c(Cl)c2)c2ccccc21` [sertraline], the “efficacy in PMDD” value in data set [1] is listed as “some efficacy”.
